From PMC11049977, “Antenna-Biased Odorant Receptor PstrOR17 Mediates Attraction of Phyllotreta striolata to (S)-Cis-Verbenol and (−)-Verbenone” (International Journal of Molecular Sciences, 2024)

Molecular target: T1, PstrOR17 (Phyllotreta striolata, UniProt A0A9N9TEW2)
T1 construct: gene PHYEVI_LOCUS1381; full-length ORF (1182 bp, 393 residues) from antennal cDNA in pUAST.attb; expressed in Drosophila melanogaster ab3A empty neurons under DmelOR22-Gal4; endogenous fly Orco not mentioned for the assay; with Odorant receptor coreceptor (Drosophila melanogaster, endogenous in the ab3A neuron)
T1 sequence (A0A9N9TEW2 1-393): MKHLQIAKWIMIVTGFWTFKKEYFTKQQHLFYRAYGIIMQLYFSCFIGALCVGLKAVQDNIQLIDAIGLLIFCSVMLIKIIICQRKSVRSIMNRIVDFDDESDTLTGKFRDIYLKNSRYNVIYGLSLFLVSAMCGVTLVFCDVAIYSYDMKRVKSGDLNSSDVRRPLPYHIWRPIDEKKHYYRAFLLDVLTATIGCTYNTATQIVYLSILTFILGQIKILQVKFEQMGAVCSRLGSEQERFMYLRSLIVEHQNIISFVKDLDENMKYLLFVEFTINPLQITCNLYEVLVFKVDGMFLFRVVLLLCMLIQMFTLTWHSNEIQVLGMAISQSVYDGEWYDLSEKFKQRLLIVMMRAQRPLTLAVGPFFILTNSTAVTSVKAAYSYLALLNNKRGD
T1 sequence (Q9VNB5 1-486 partner): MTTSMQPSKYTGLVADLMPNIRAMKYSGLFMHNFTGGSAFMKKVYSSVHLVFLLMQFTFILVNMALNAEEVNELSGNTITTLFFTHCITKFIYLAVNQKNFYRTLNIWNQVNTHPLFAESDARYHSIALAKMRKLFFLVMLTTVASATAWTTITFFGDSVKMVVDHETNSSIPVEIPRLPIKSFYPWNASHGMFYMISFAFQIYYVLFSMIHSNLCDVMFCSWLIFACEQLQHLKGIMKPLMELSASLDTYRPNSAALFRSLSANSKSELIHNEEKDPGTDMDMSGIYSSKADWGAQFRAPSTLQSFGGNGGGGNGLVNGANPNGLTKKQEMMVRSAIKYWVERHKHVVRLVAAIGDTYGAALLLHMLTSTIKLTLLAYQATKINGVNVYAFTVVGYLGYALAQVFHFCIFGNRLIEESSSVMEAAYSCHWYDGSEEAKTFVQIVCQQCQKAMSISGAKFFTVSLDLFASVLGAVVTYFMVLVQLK
Test: single sensillum recording, Drosophila empty neuron (ab3A)
Format: cell-based
Conditions: agonist, odour cartridge 10 μL on filter strip

[1] = 10 μg/μL for profile, dose series 10^-5 to 10 mg/mL

| Structure (SMILES) | single sensillum recording, Drosophila empty neuron (ab3A) (10 μg/μL) | single sensillum recording, Drosophila empty neuron (ab3A) [1] |
| --- | --- | --- |
| C=C1CC[C@H]2C[C@@H]1C2(C)C [(−)-β-pinene] | moderate responses to five other odorants: α-pinene; (−)-β-pinene |  |
| CC1=CC(=O)[C@H]2C[C@@H]1C2(C)C [(−)-verbenone] |  | PstrOR17 responded to both (−)-verbenone and (S)-cis-verbenol in a dose-dependent manner |
| CC1=C[C@H](O)[C@H]2C[C@@H]1C2(C)C [(S)-cis-verbenol] |  | PstrOR17 responded to both (−)-verbenone and (S)-cis-verbenol in a dose-dependent manner |
| CC1=CCC(C(C)C)=CC1 [γ-terpinene] | moderate responses to five other odorants: α-pinene; (−)-β-pinene; γ-terpinene |  |
| CC1=CCC2CC1C2(C)C (stereo not drawn) [α-pinene] | PstrOR17 also conferred moderate responses to five other odorants: α-pinene |  |
